From PubChem BioAssay (NCI)
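Results reflect a 48-hour exposure of cells in 96-well plates to compound at five concentrations. TGI is the concentration that stops growth completely.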

Legend:
Test in all cases: DTP human tumour cell line panel, 48 h
HT29 colon = system: HT29 colon
OVCAR-5 ovarian = system: OVCAR-5 ovarian
NCI-H23 lung = system: NCI-H23 lung
SNB-78 CNS = system: SNB-78 CNS
CAKI-1 renal = system: CAKI-1 renal
SF-539 CNS = system: SF-539 CNS
K-562 leukemia = system: K-562 leukemia
U251 CNS = system: U251 CNS
MALME-3M melanoma = system: MALME-3M melanoma
ACHN renal = system: ACHN renal
KM12 colon = system: KM12 colon
SK-MEL-28 melanoma = system: SK-MEL-28 melanoma
M19-MEL melanoma = system: M19-MEL melanoma
A549 NSCLC = system: A549 NSCLC
LOX IMVI melanoma = system: LOX IMVI melanoma
SR leukemia = system: SR leukemia
DMS 273 small cell lung = system: DMS 273 small cell lung
OVCAR-8 ovarian = system: OVCAR-8 ovarian
UO-31 renal = system: UO-31 renal
HOP-62 NSCLC = system: HOP-62 NSCLC
786-0 renal = system: 786-0 renal
SNB-19 CNS = system: SNB-19 CNS
UACC-257 melanoma = system: UACC-257 melanoma
OVCAR-4 ovarian = system: OVCAR-4 ovarian
COLO 205 colon = system: COLO 205 colon
SW-620 colon = system: SW-620 colon
TK-10 renal = system: TK-10 renal
KM20L2 colon = system: KM20L2 colon
M14 melanoma = system: M14 melanoma
OVCAR-3 ovarian = system: OVCAR-3 ovarian
SK-OV-3 ovarian = system: SK-OV-3 ovarian
DMS 114 small cell lung = system: DMS 114 small cell lung
EKVX NSCLC = system: EKVX NSCLC
XF 498 CNS = system: XF 498 CNS
SF-295 CNS = system: SF-295 CNS
HCT-116 colon = system: HCT-116 colon
HL-60(TB) leukemia = system: HL-60(TB) leukemia
NCI-H460 lung = system: NCI-H460 lung
HCC-2998 colon = system: HCC-2998 colon
HCT-15 colon = system: HCT-15 colon
MOLT-4 leukemia = system: MOLT-4 leukemia
SK-MEL-2 melanoma = system: SK-MEL-2 melanoma
NCI-H522 lung = system: NCI-H522 lung
SF-268 CNS = system: SF-268 CNS
RPMI-8226 leukemia = system: RPMI-8226 leukemia
CCRF-CEM leukemia = system: CCRF-CEM leukemia
NCI-H226 lung = system: NCI-H226 lung
SN12C renal = system: SN12C renal
IGROV1 ovarian = system: IGROV1 ovarian
T-47D breast = system: T-47D breast
NCI/ADR-RES ovarian = system: NCI/ADR-RES ovarian
HS 578T breast = system: HS 578T breast
SNB-75 CNS = system: SNB-75 CNS
BT-549 breast = system: BT-549 breast
DU-145 prostate = system: DU-145 prostate
MDA-MB-435 = system: MDA-MB-435
MDA-MB-231 breast = system: MDA-MB-231 breast
RXF 393 renal = system: RXF 393 renal
MDA-N = system: MDA-N
PC-3 prostate = system: PC-3 prostate
SK-MEL-5 melanoma = system: SK-MEL-5 melanoma
MCF7 breast = system: MCF7 breast

## CNc1ccc([N+](=O)[O-])c2c(NCCCN(C)C)ccnc12
HT29 colon
  TGI: > 100 µM
OVCAR-5 ovarian
  TGI: > 100 µM
NCI-H23 lung
  TGI: > 100 µM
SNB-78 CNS
  TGI: > 100 µM
CAKI-1 renal
  TGI: > 100 µM
SF-539 CNS
  TGI: > 100 µM
K-562 leukemia
  TGI: > 100 µM
U251 CNS
  TGI: > 100 µM
MALME-3M melanoma
  TGI: > 100 µM
ACHN renal
  TGI: > 100 µM
KM12 colon
  TGI: > 100 µM
SK-MEL-28 melanoma
  TGI: > 100 µM
M19-MEL melanoma
  TGI: > 100 µM
A549 NSCLC
  TGI: > 100 µM
LOX IMVI melanoma
  TGI: > 100 µM
SR leukemia
  TGI: > 100 µM
DMS 273 small cell lung
  TGI: > 100 µM
OVCAR-8 ovarian
  TGI: > 100 µM
UO-31 renal
  TGI: > 100 µM
HOP-62 NSCLC
  TGI: > 100 µM
786-0 renal
  TGI: > 100 µM
SNB-19 CNS
  TGI: > 100 µM
UACC-257 melanoma
  TGI: > 100 µM
OVCAR-4 ovarian
  TGI: > 100 µM
COLO 205 colon
  TGI: > 100 µM
SW-620 colon
  TGI: > 100 µM
TK-10 renal
  TGI: > 100 µM
KM20L2 colon
  TGI: > 100 µM
M14 melanoma
  TGI: > 100 µM
OVCAR-3 ovarian
  TGI: > 100 µM
SK-OV-3 ovarian
  TGI: > 100 µM
DMS 114 small cell lung
  TGI: > 100 µM
EKVX NSCLC
  TGI: > 100 µM
XF 498 CNS
  TGI: > 100 µM
SF-295 CNS
  TGI: > 100 µM
HCT-116 colon
  TGI: > 100 µM
HL-60(TB) leukemia
  TGI: > 100 µM
NCI-H460 lung
  TGI: > 100 µM
HCC-2998 colon
  TGI: > 100 µM
HCT-15 colon
  TGI: > 100 µM
MOLT-4 leukemia
  TGI: > 100 µM
SK-MEL-2 melanoma
  TGI: > 100 µM
NCI-H522 lung
  TGI: > 100 µM
SF-268 CNS
  TGI: > 100 µM
RPMI-8226 leukemia
  TGI: > 100 µM
CCRF-CEM leukemia
  TGI: > 100 µM
NCI-H226 lung
  TGI: > 100 µM
SN12C renal
  TGI: > 100 µM
IGROV1 ovarian
  TGI: > 100 µM

## CC(=O)N1C(Nc2cccc3nc(C)ccc23)CCN1c1ccccc1 (stereo not drawn)
HT29 colon
  TGI: > 10 µM
OVCAR-5 ovarian
  TGI: > 10 µM
NCI-H23 lung
  TGI: > 10 µM
T-47D breast
  TGI: > 10 µM
CAKI-1 renal
  TGI: > 10 µM
SF-539 CNS
  TGI: > 10 µM
K-562 leukemia
  TGI: > 10 µM
MALME-3M melanoma
  TGI: > 10 µM
NCI/ADR-RES ovarian
  TGI: > 10 µM
ACHN renal
  TGI: > 10 µM
SK-MEL-28 melanoma
  TGI: > 10 µM
A549 NSCLC
  TGI: > 10 µM
LOX IMVI melanoma
  TGI: > 10 µM
SR leukemia
  TGI: > 10 µM
OVCAR-8 ovarian
  TGI: > 10 µM
HS 578T breast
  TGI: > 10 µM
UO-31 renal
  TGI: > 10 µM
HOP-62 NSCLC
  TGI: > 10 µM
786-0 renal
  TGI: > 10 µM
SNB-19 CNS
  TGI: > 10 µM
UACC-257 melanoma
  TGI: > 10 µM
OVCAR-4 ovarian
  TGI: > 10 µM
COLO 205 colon
  TGI: > 10 µM
SW-620 colon
  TGI: > 10 µM
TK-10 renal
  TGI: > 10 µM
SNB-75 CNS
  TGI: > 10 µM
M14 melanoma
  TGI: > 10 µM
OVCAR-3 ovarian
  TGI: > 10 µM
SK-OV-3 ovarian
  TGI: > 10 µM
EKVX NSCLC
  TGI: > 10 µM
BT-549 breast
  TGI: > 10 µM
SF-295 CNS
  TGI: > 10 µM
DU-145 prostate
  TGI: > 10 µM
HCT-116 colon
  TGI: > 10 µM
HL-60(TB) leukemia
  TGI: > 10 µM
MDA-MB-435
  TGI: > 10 µM
MDA-MB-231 breast
  TGI: > 10 µM
NCI-H460 lung
  TGI: > 10 µM
RXF 393 renal
  TGI: > 10 µM
HCC-2998 colon
  TGI: > 10 µM
HCT-15 colon
  TGI: > 10 µM
MOLT-4 leukemia
  TGI: > 10 µM
MDA-N
  TGI: > 10 µM
SK-MEL-2 melanoma
  TGI: > 10 µM
PC-3 prostate
  TGI: > 10 µM
NCI-H522 lung
  TGI: > 10 µM
SF-268 CNS
  TGI: > 10 µM
RPMI-8226 leukemia
  TGI: > 10 µM
CCRF-CEM leukemia
  TGI: > 10 µM
NCI-H226 lung
  TGI: > 10 µM
SN12C renal
  TGI: > 10 µM
SK-MEL-5 melanoma
  TGI: > 10 µM
MCF7 breast
  TGI: > 10 µM
IGROV1 ovarian
  TGI: > 10 µM
